In general, IC50 refers to the concentration that inhibits the measured activity by half. The low end stands for higher potency, the high end for lower potency.

From patent US8017612B2, “Piperazine compound and use thereof as a HCV polymerase inhibitor” (priority 2006, dated 2011) come the findings set out here.

Experiment [1] concerns the target T1, HCV polymerase (NS5B) type 1a (Hepatitis C virus genotype 1a, UniProt P26664).
T1 construct: made in house; host or cells: Escherichia coli (by the 'similar method' of the 1b enzyme)
Description: Assay of enzyme (HCV polymerase) inhibitory activity, type 1a enzyme. The experiment is classed as biochemical, HCV type 1a (cloned from the blood of patients). The essentials: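 Patient-derived type 1a NS5B (C-terminal 47-aa deletion, His-tagged, E. coli-expressed) at 1.5 μg/ml was reacted with 5 μg/ml 3′UTR-containing substrate RNA, 50 μM ATP/GTP/CTP, 2 μM UTP plus [3H]UTP, pH 7.5, 25° C for 60 min. TCA-precipitated RNA radioactivity was counted; IC50 from ± compound.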

Experiment [2] has as its target T2, HCV polymerase (NS5B) type 1b (Hepatitis C virus genotype 1b, UniProt P26663).
T2 construct: a region encoding NS5B (J Virol 1991 March, 65(3), 1105-13, 544 amino acids after deletion of 47 amino acids on the C-terminal); 6xHis (C); made in house; host or cells: Escherichia coli
In words: Assay of enzyme (HCV polymerase) inhibitory activity, type 1b enzyme. The experiment is classed as biochemical, HCV BK strain (type 1b). The essentials:
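NS5B from HCV BK strain (type 1b), C-terminal 47 aa deleted, C-terminal His6-tagged, E. coli-expressed, 0.5 μg/ml, with ~450 nt substrate RNA carrying the 3′ UTR (polyU, 3′X) at 5 μg/ml. Incubation 60 min at 25 °C with 50 μM ATP/GTP/CTP, 2 μM UTP plus [3H]UTP, pH 7.5 Tris.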

Setting [3] is: HCV polymerase inhibitory activity (IC50), 1a, type 1a enzyme 1.5 μg/ml, 25° C., 60 min.
The mark [4] stands for this setting: HCV polymerase inhibitory activity (IC50), 1b, type 1b enzyme 0.5 μg/ml, 25° C., 60 min.
Where [5] appears, read: HCV polymerase inhibitory activity IC50, 1a, type 1a enzyme.
Where [6] appears, read: HCV polymerase inhibitory activity IC50, 1b, type 1b enzyme.

SMILES strings stand for the structures. Counter-ions that a name gives are not always drawn.

For `CCOc1ccc(S(=O)(=O)N2CCN(C(C)=O)C[C@@H]2C(=O)NCc2ccc(C(C)C)cc2)cc1` [Example 192, (R)-4-acetyl-1-(4-ethoxy-benzenesulfonyl)-piperazine-2-carboxylic acid 4-isopropyl-benzylamide], the IC50 in experiment [1] (setting [3]) and in experiment [2] (setting [4]) was 100 to 1000 nM in each case.

In the case of `CCC(F)(F)c1ccc(CNC(=O)[C@H]2CN(c3cnc4cnccc4n3)CCN2S(=O)(=O)c2ccc(N3CCCC3)cc2)cc1` [Example 743, (R)-4-pyrido[3,4-b]pyrazin-2-yl-1-(4-pyrrolidin-1-yl-benzenesulfonyl)-piperazine-2-carboxylic acid 4-(1,1-difluoro-propyl)-benzylamide], the IC50 in experiment [1] (setting [5]) and in experiment [2] (setting [6]) was below 100 nM each time.

Turning to `CC(=O)N1CCN(S(=O)(=O)c2ccc(S(=O)(=O)c3ccccc3)s2)C(C(=O)NCc2ccc(C(F)(F)F)cc2)C1` (stereo not drawn) [Example 47, 4-acetyl-1-(5-benzenesulfonyl-thiophene-2-sulfonyl)-piperazine-2-carboxylic acid 4-trifluoromethyl-benzylamide], the IC50 in experiment [1] (setting [3]) and in experiment [2] (setting [4]) was above 1000 nM throughout.

As for `CCCc1ccc(S(=O)(=O)N2CCN(c3nc(C)c(C(=O)OC(C)(C)C)s3)C[C@@H]2C(=O)NCc2ccc(C(C)C)cc2C)cc1` [Example 330, 2-[(R)-3-(4-isopropyl-2-methyl-benzylcarbamoyl)-4-(4-propyl-benzenesulfonyl)-piperazin-1-yl]-4-methyl-thiazole-5-carboxylic acid tert-butyl ester], the figures for the IC50 in experiment [1] (setting [3]) and in experiment [2] (setting [4]) were above 1000 nM and 100 to 1000 nM, respectively.

With `CC(C)c1ccc(CNC(=O)[C@H]2CN(c3cc(C(=O)O)ccn3)CCN2S(=O)(=O)c2ccc(C(F)(F)F)cc2)cc1` [Example 349, 2-[(R)-3-(4-isopropyl-benzylcarbamoyl)-4-(4-trifluoromethyl-benzenesulfonyl)-piperazin-1-yl]-isonicotinic acid trifluoroacetate], the IC50 was above 1000 nM in experiment [1] (setting [3]) and 100 to 1000 nM in experiment [2] (setting [4]).

For the molecule `CCCc1ccc(CNC(=O)[C@H]2CN(c3nc(C)c(CNC)s3)CCN2S(=O)(=O)c2ccc(OC(F)(F)F)cc2)cc1` [Example 506, (R)-4-(4-methyl-5-methylaminomethyl-thiazol-2-yl)-1-(4-trifluoromethoxy-benzenesulfonyl)-piperazine-2-carboxylic acid 4-propyl-benzylamide], the half-inhibitory concentration (IC50) in experiment [1] (setting [3]) and in experiment [2] (setting [4]) was below 100 nM throughout.

With `CCC(F)(F)c1ccc(CNC(=O)[C@H]2CN(c3cnc4cncnc4n3)CCN2S(=O)(=O)c2ccc(-c3ccccc3OCC(=O)O)cc2)cc1` [Example 731, (4′-{(R)-2-[4-(1,1-difluoro-propyl)-benzylcarbamoyl]-4-pteridin-7-yl-piperazine-1-sulfonyl}-biphenyl-2-yloxy)-acetic acid], the concentration for half-maximal inhibition (IC50) in experiment [1] (setting [5]) and in experiment [2] (setting [6]) was below 100 nM each time.

For the molecule `CCC(F)(F)c1ccc(CNC(=O)[C@H]2CN(c3nc4c(=O)[nH]ncc4s3)CCN2S(=O)(=O)c2ccc(OC(F)(F)F)cc2)cc1` [Example 664, (R)-4-(4-oxo-4,5-dihydro-thiazolo[4,5-d]pyridazin-2-yl)-1-(4-trifluoromethoxy-benzenesulfonyl)-piperazine-2-carboxylic acid 4-(1,1-difluoro-propyl)-benzylamide], the IC50 in experiment [1] (setting [5]) and in experiment [2] (setting [6]) was below 100 nM in each case.

On to `CCC(F)(F)c1ccc(CNC(=O)[C@H]2CN(c3ccc4nccnc4n3)CCN2S(=O)(=O)c2ccc(OC(F)(F)F)cc2)cc1` [Example 748, (R)-4-pyrido[2,3-b]pyrazin-6-yl-1-(4-trifluoromethoxy-benzenesulfonyl)-piperazine-2-carboxylic acid 4-(1,1-difluoro-propyl)-benzylamide], for which the 50% inhibitory concentration (IC50) in experiment [1] (setting [5]) and in experiment [2] (setting [6]) was below 100 nM in each case.

As to `CCC(F)(F)c1ccc(CNC(=O)[C@H]2CN(c3cnc4ncccc4n3)CCN2S(=O)(=O)c2ccc(OC(F)(F)F)cc2)cc1` [Example 761, (R)-4-pyrido[2,3-b]pyrazin-2-yl-1-(4-trifluoromethoxy-benzenesulfonyl)-piperazine-2-carboxylic acid 4-(1,1-difluoro-propyl)-benzylamide], the IC50 in experiment [1] (setting [5]) and in experiment [2] (setting [6]) was below 100 nM each time.

Regarding `CC(C)c1ccc(S(=O)(=O)N2CCN(C3=NCCO3)CC2C(=O)NCc2ccc(C(F)(F)F)cc2)cc1` (stereo not drawn) [Example 133, 4-(4,5-dihydro-oxazol-2-yl)-1-(4-isopropyl-benzenesulfonyl)-piperazine-2-carboxylic acid 4-trifluoromethyl-benzylamide], the IC50 in experiment [1] (setting [3]) and in experiment [2] (setting [4]) was above 1000 nM throughout.

For `COCC1(c2ccc(CNC(=O)[C@H]3CN(c4nc5cn[nH]c(=O)c5s4)CCN3S(=O)(=O)c3ccc(OC(F)(F)F)cc3)cc2)CC1` [Example 882, (R)-4-(7-oxo-6,7-dihydro-thiazolo[4,5-d]pyridazin-2-yl)-1-(4-trifluoromethoxy-benzenesulfonyl)-piperazine-2-carboxylic acid 4-(1-methoxymethyl-cyclopropyl)-benzylamide], the IC50 in experiment [1] (setting [5]) was 100 to 1000 nM; in experiment [2] (setting [6]) it was below 100 nM.

Turning to `CCC(F)(F)c1ccc(CNC(=O)[C@H]2CN(c3cnc4cnccc4n3)CCN2S(=O)(=O)c2ccc(C(C)(C)C)cc2)cc1` [Example 714, (R)-1-(4-tert-butyl-benzenesulfonyl)-4-pyrido[3,4-b]pyrazin-2-yl-piperazine-2-carboxylic acid 4-(1,1-difluoro-propyl)-benzylamide], the IC50 in experiment [1] (setting [5]) and in experiment [2] (setting [6]) was below 100 nM in each case.

On to `CN(C)c1ccc(CNC(=O)[C@H]2CN(c3cnc(C(=O)O)cn3)CCN2S(=O)(=O)c2ccc(OC(F)(F)F)cc2)cc1` [Example 399, (R)-3-(4-dimethylamino-benzylcarbamoyl)-4-(4-trifluoromethoxy-benzenesulfonyl)-3,4,5,6-tetrahydro-2H-[1,2′]bipyrazinyl-5′-carboxylic acid], for which the concentration for half-maximal inhibition (IC50) in experiment [1] (setting [3]) and in experiment [2] (setting [4]) was below 100 nM throughout.

In the case of `CCCc1ccc(CNC(=O)[C@H]2CN(c3nc4c(C(=O)OCC)nnc(Cl)c4s3)CCN2S(=O)(=O)c2ccc(CC)cc2)cc1` [Example 880, 7-chloro-2-[(R)-4-(4-ethyl-benzenesulfonyl)-3-(4-propyl-benzylcarbamoyl)-piperazin-1-yl]-thiazolo[4,5-d]pyridazine-4-carboxylic acid ethyl ester], the half-inhibitory concentration (IC50) in experiment [1] (setting [5]) and in experiment [2] (setting [6]) was below 100 nM in each case.

As to `Cc1n[nH]c(=O)c2sc(N3CCN(S(=O)(=O)c4ccc(C(F)(F)F)cc4)[C@@H](C(=O)NCc4ccc(OC(F)(F)F)cc4)C3)nc12` [Example 893, (R)-4-(4-methyl-7-oxo-6,7-dihydro-thiazolo[4,5-d]pyridazin-2-yl)-1-(4-trifluoromethyl-benzenesulfonyl)-piperazine-2-carboxylic acid 4-trifluoromethoxy-benzylamide], the IC50 in experiment [1] (setting [5]) and in experiment [2] (setting [6]) was below 100 nM throughout.

Consider `CC(=O)N1CCN(S(=O)(=O)c2ccc(C(=O)O)cc2)C(C(=O)NCc2ccc(C(F)(F)F)cc2)C1` (stereo not drawn) [Example 107, 4-[4-acetyl-2-(4-trifluoromethyl-benzylcarbamoyl)-piperazine-1-sulfonyl]-benzoic acid], for which the 50% inhibitory concentration (IC50) in experiment [1] (setting [3]) and in experiment [2] (setting [4]) was above 1000 nM each time.

Turning to `CC(C)c1ccc(CNC(=O)[C@H]2CN(c3nc(Br)n[nH]3)CCN2S(=O)(=O)c2ccc(C(F)(F)F)cc2)cc1` [Example 372, (R)-4-(5-bromo-2H-[1,2,4]triazol-3-yl)-1-(4-trifluoromethyl-benzenesulfonyl)-piperazine-2-carboxylic acid 4-isopropyl-benzylamide], the figures for the IC50 in experiment [1] (setting [3]) and in experiment [2] (setting [4]) were 100 to 1000 nM and below 100 nM, respectively.

Turning to `CCC(F)(F)c1ccc(CNC(=O)[C@H]2CN(C(=O)Nc3ccnc(C(N)=O)c3)CCN2S(=O)(=O)c2ccc(OC(F)(F)F)cc2)cc1` [Example 503, (R)-4-(4-trifluoromethoxy-benzenesulfonyl)-piperazine-1,3-dicarboxylic acid 1-[(2-carbamoyl-pyridin-4-yl)-amide] 3-[4-(1,1-difluoro-propyl)-benzylamide]], the half-inhibitory concentration (IC50) in experiment [1] (setting [3]) was 100 to 1000 nM; in experiment [2] (setting [4]) it was below 100 nM.

As to `CCCc1ccc(CNC(=O)[C@H]2CN(c3nc(C)c(C(=O)O)s3)CCN2S(=O)(=O)c2ccc(OC(F)(F)F)cc2F)cc1` [Example 14, 2-[(R)-4-(2-fluoro-4-trifluoromethoxy-benzenesulfonyl)-3-(4-propyl-benzylcarbamoyl)-piperazin-1-yl]-4-methyl-thiazole-5-carboxylic acid], the IC50 in experiment [1] (setting [3]) and in experiment [2] (setting [4]) was below 100 nM in each case.

Regarding `O=C(NCC1CC(c2ccccc2)C1)[C@H]1CN(c2nc3cn[nH]c(=O)c3s2)CCN1S(=O)(=O)c1ccc(OC(F)(F)F)cc1` (stereo partly drawn) [Example 899, (R)-4-(7-oxo-6,7-dihydro-thiazolo[4,5-d]pyridazin-2-yl)-1-(4-trifluoromethoxy-benzenesulfonyl)-piperazine-2-carboxylic acid (3-phenyl-cyclobutylmethyl)-amide], the figures for the IC50 in experiment [1] (setting [5]) and in experiment [2] (setting [6]) were above 1000 nM and 100 to 1000 nM, respectively.
